Experimental data published in US7348152B2, “Rhamnose binding protein” (Solbec Pharmaceutical Limited, priority 2002, dated 2008).

Key:
[1] = test system: A2058 cells; test: Co-administration of BEC® and rhamnose, cell survival; type: cell-based; details: 5 mM rhamnose, 5000 cells, 5 minutes and 4 days
Experimental: A2058 cells at two different cell densities were treated with BEC® +/−rhamnose and cell survival was monitored after 4 days. The treatments comprised: (i) BEC® only for 4 days (ii) BEC® only for 5 minutes (iii) BEC® and 5 mM rhamnose for 4 days and (iv) BEC® and 5 mM rhamnose for 5 minutes.

[2] = test system: RBP bearing cells; test: Cell adhesion between RBP bearing cells; type: cell-based; details: RBP binds ligand
[3] = test system: A2058 cells; test: Staining of cells with fluorescein tagged rhamnose probe (FRITC); type: cell-based
Experimental: A2058 cells were coated at low density in a microscope compatible chamber. The cells were washed with HBS^2+ then incubated with FRITC (top concentration of DMSO=2.5%) for 5-15 min at 37° C. The FRITC was removed, the cells washed twice with HBS^2+ and examined under a visible light microscope. The incubation was repeated with 0-100 μM fluorescein-amine, and for 25 and 6 μM FRITC using a 10^3× excess of unlabelled rhamnose.
A fluorescein tagged rhamnose probe (FRITC) was prepared as previously described and used to stain A2058 cells.
FRITC at concentrations from 3-25 μM was incubated with A2058 cells for 15 minutes at 37° C.

[4] = test system: rhamnose binding protein (RBP); test: Dissociation constant of the receptor estimated from the cytotoxicity functions; details: read-out: dissociation constant of RBP when bound to the rhamnose moiety of solamargine
Experimental: Given that the evaluation of the cytotoxicities for different cell lines needed to be conducted using different sized cell populations, it was considered prudent to determine the effect, if any, of cell number on the measured value of LD50. Five cell lines, HT-29, LS174-T, 5637, A431 and MCF-7 were evaluated at four different seeding cell densities. Hs578T and CCD 18Lu were evaluated at three seeding densities and Hs578Bst, both early and late passage cells, were evaluated at two seeding densities.
In order that the full range of cell densities be evaluated with at least one cell line, a 3-day version of the cytotoxicity was developed. The cell lines involved were recalibtrated for the 3-day format. Multiwell plates were seeded on day 1. Cells were treated with BEC® on day 2 and MTT was added twenty four hours later.
Comparing the two fitted functions, two distinct regions are discernable (FIG. 8). […] We estimate that the dissociation constant for this receptor is likely to be of the order of 1.5×10^−6 M.

C[C@H](O)[C@H](O)[C@@H](O)[C@@H](O)C=O [rhamnose]
rhamnose competition with BEC® uptake (protective effect) [1]: affects the amount of BEC® taken up by the cells
cell adhesion of RBP bearing cells [2]: inhibited
inhibition of FRITC staining ([3]; co-incubation with free rhamnose at 10 mM): staining could be inhibited

C[C@@H]1CC[C@@]2(NC1)O[C@H]1C[C@H]3[C@@H]4CC=C5C[C@@H](O[C@@H]6O[C@H](CO)[C@@H](O[C@@H]7O[C@@H](C)[C@H](O)[C@@H](O)[C@H]7O)[C@H](O)[C@H]6O[C@@H]6O[C@@H](C)[C@H](O)[C@@H](O)[C@H]6O)CC[C@]5(C)[C@H]4CC[C@]3(C)[C@H]1[C@@H]2C [solamargine]
Kd [4]: ~1500 nM

Fluorescein Rhamnose-ITC [FRITC]
fluorescent staining of cells ([3]; FRITC 3-25 μM, 15 minutes at 37° C.): found to fluoresce
